The test system of one test is cell wall UCP. In words: Flow cytometry of non-permeabilized cells stained with anti-UCP2 antibody for cell wall UCP. The test is classed as cell-based, Chlamydomonas reinhardtii. To be noted: wild type strains of C. reinhardtii treated with norflurazon; FIG. 3. As for the experimental part:
Wild type (CC124, mt−) and cell wall-less (CC, mt+) C. reinhardtii were tested for the presence of UCP by flow cytometry. Non-permeabilized cells were stained with anti-UCP2 antibody (Santa Cruz Technologies). Cells were prepared for staining with goat anti-UCP2 antibody (Santa Cruz Pharmaceuticals) followed by fluorescein conjugated anti-rabbit or goat outer step antibodies, respectively. Data were acquired on a Coulter Elite Epics flow cytometer (Coulter, Hialeah, Fla.) and analyzed with CellQuest software, (Becton Dickinson, San Jose, Calif.). Cells were stained for intracellular peroxide using 6-carboxy-2′-7′-dichlorodihydrofluorescein diacetate (DCF-DA, Molecular Probes, Eugene, Oreg.). Briefly, cells were incubated with DCF-DA for 20 minutes, washed twice in PBS containing 5% fetal calf serum and analyzed flow cytometrically. Mitochondrial membrane potential was assessed using Mitotracker Red (CM-H2XROS, Molecular Probes, Eugene, Oreg.). The cells were resuspended in cold, or room temperature, PBS containing 13% fetal calf serum, 0.5 micromolar Mitotracker Red dye was then added to the suspension. The cells were incubated at 37° C. for 20 minutes, pelleted, and resuspended in prewarmed medium for analysis. […] Each sample population was classified for cell size (forward scatter) and complexity (side scatter), gated on a population of interest and evaluated using 40,000 cells.
In general terms: In flow cytometry, cells or beads pass a laser one at a time.

Test [1] deals with wild type strains of algae. In words: Light sensitivity of wild type algae in the presence of the herbicide. The test is classed as cell-based, Chlamydomonas reinhardtii. To be noted: in the presence of norflurazon.

Entries after “also recorded” stand apart in the source; their conditions may differ.

As to `CNc1cnn(-c2cccc(C(F)(F)F)c2)c(=O)c1Cl` [norflurazon], the “cell wall expression of UCP” value in the test with cell wall UCP was “upregulates cell wall expression of UCP; also recorded: Increased levels of uncoupling protein”. For the same molecule, in test [1], the “light sensitivity of algae” value is on record as “made light-sensitive”.

The record behind these values is patent US7105718B2, “Compositions and methods for regulating metabolism in plants” (The Regents of the University of Colorado, priority 2000, dated 2006).
